Laboratory results reported in patent publication US12139487B2, “Compounds and uses thereof” (Foghorn Therapeutics Inc., priority 2022, dated 2024).

What was measured:
BRM = biological target: T1, BRM (Homo sapiens, UniProt P51531); assay: ATPase catalytic activity assay (ADP-Glo), BRM; assay type: biochemical; conditions: Table 10; for Ratio (BRG1 IC50 (μM) divided by BRM IC50 (μM)): ATPase assay, selectivity BRG1/BRM; for IC50: ATPase catalytic activity assay (ADP-Glo)
T1 construct: made in house; host or cells: High Five insect cells
T1 sequence (P51531 whole entry): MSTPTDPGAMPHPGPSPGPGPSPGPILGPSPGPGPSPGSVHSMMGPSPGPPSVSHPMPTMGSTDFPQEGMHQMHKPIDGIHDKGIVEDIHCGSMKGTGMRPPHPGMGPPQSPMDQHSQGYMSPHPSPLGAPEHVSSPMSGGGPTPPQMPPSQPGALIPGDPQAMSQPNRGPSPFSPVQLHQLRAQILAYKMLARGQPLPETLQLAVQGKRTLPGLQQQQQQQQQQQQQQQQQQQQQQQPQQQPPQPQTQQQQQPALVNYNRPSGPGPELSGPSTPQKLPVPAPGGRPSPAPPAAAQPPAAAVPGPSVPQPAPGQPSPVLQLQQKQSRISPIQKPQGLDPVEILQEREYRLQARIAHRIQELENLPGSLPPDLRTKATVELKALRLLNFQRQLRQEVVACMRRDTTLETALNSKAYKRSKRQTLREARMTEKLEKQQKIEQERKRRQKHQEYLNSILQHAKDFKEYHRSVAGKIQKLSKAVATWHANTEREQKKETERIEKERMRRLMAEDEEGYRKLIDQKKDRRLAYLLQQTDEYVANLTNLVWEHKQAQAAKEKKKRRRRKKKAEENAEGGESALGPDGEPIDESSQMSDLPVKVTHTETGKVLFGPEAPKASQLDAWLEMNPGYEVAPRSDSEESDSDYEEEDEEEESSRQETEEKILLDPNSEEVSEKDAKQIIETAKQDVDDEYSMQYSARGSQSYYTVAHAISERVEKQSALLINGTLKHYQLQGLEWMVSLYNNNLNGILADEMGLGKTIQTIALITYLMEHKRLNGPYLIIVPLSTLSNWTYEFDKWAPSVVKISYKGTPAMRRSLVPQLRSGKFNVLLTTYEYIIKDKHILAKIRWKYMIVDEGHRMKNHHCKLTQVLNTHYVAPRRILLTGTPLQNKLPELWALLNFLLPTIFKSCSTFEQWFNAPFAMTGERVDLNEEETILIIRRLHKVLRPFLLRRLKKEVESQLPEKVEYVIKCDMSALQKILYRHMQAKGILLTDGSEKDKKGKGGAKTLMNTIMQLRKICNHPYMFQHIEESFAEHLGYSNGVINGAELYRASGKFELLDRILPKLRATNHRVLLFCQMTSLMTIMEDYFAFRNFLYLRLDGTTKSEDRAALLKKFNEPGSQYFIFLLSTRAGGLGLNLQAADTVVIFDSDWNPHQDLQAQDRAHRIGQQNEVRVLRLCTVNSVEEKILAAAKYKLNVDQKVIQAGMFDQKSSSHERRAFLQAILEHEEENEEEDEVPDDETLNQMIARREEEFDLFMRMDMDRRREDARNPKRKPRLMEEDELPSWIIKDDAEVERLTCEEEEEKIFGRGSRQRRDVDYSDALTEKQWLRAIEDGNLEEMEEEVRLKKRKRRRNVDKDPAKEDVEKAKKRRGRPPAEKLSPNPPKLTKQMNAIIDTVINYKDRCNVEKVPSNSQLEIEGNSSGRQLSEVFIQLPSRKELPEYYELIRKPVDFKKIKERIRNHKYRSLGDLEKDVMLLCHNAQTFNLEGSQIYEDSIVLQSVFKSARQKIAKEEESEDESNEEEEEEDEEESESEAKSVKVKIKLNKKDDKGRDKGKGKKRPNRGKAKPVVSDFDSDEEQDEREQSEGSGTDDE
In short: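 ADP-Glo luminescence measures ADP produced by BRM ATPase (30 nM) during 1 h at room temperature. ATP is 400 μM, with 20 nM salmon sperm DNA as cofactor. Buffer: 20 mM Tris pH 8, 20 mM MgCl2, 50 mM NaCl, 0.1% Tween-20, 1 mM DTT.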

BRG-1 = biological target: T2, BRG-1 (Homo sapiens, UniProt P51532); assay: ATPase catalytic activity assay (ADP-Glo), BRG-1; assay type: biochemical; conditions: Table 10, read-out: BRG1 IC50
T2 construct: made in house; host or cells: High Five insect cells
T2 sequence (P51532 whole entry): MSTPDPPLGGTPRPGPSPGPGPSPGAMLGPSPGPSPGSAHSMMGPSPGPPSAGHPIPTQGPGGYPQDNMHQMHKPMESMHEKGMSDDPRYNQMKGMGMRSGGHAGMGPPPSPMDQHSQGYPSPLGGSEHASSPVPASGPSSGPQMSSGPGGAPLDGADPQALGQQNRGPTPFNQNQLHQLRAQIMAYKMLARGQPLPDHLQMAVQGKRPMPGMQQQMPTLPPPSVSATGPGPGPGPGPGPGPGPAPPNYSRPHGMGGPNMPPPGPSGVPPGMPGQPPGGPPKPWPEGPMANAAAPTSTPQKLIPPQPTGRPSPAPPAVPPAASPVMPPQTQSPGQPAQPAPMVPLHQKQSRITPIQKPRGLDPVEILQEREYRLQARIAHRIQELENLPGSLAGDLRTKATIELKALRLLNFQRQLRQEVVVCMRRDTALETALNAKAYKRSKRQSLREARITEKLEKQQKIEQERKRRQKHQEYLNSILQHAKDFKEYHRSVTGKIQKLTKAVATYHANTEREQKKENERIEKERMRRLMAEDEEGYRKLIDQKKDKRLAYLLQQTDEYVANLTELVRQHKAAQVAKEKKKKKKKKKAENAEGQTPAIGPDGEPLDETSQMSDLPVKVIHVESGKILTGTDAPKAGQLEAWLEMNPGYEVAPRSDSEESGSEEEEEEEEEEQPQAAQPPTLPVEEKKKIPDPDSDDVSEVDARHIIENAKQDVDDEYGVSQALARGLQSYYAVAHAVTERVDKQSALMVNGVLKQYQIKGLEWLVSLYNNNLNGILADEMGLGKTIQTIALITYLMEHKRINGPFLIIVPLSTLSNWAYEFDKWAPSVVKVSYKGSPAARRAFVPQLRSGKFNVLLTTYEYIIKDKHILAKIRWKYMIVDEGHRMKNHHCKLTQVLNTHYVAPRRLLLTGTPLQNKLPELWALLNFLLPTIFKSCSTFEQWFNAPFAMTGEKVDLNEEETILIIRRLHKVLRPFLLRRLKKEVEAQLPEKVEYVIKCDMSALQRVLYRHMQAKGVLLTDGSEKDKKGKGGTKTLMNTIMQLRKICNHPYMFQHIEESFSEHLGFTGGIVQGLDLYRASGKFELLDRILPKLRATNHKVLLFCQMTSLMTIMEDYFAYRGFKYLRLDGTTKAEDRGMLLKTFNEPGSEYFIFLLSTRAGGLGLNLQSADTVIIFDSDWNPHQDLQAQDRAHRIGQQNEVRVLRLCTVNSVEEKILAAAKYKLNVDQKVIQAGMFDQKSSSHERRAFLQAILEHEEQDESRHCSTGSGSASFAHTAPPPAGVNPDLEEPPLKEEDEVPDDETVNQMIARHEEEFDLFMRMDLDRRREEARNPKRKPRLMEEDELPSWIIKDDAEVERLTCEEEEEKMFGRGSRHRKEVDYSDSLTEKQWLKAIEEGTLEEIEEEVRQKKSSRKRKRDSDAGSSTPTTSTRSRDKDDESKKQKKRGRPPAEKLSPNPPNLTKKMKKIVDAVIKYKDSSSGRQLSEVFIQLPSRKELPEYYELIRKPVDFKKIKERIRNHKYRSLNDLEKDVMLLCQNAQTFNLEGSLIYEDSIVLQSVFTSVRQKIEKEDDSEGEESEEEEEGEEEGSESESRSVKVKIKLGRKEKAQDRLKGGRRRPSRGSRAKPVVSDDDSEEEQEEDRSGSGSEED
In short: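 ADP produced by BRG-1 was quantified by luciferase luminescence. A 60 min room-temperature ADP-to-ATP conversion followed a 40 min ATP-depletion step.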

SMILES | Ratio (BRG1 IC50 (μM) divided by BRM IC50 (μM)) (BRM) | IC50 (BRM) | IC50 (BRG-1)
C[C@@H]1[C@@H](F)CN1c1cnc2c(c1)OCCN2c1ccc2cnc(CNC(=O)c3cc(F)c4c(c3)S(=O)(=O)[C@@H](F)CCO4)cc2n1 [Compound 80] | 16.24 | 3 nM | 48.4 nM
CO[C@@H]1CN(c2cccc(-c3ccc4cnc(CNC(=O)c5cc(F)c6c(c5)S(=O)(=O)[C@@H](F)CCO6)cc4n3)n2)C[C@H]1C [Compound 104] | 10.21 | 3.6 nM | 42.7 nM
O=C(NCc1cc2nc(-c3csnc3OC(F)F)ccc2cn1)c1cc(F)c2c(c1)S(=O)(=O)[C@@H](F)CCO2 [Compound 155] | 19.80 | 5 nM | 88 nM
[2H]C1([2H])OC([2H])([2H])[C@H](F)S(=O)(=O)c2cc(C(=O)NCc3cc4nc(N5CCOc6ccc(C7CC7)nc65)ccc4cn3)cc(F)c21 [Compound 59] |  | 2.5 nM | 72.5 nM
COc1cccc(-c2ccc3cnc(CNC(=O)c4cc(Cl)c5c(c4)S(=O)(=O)[C@@H](F)CCO5)cc3n2)n1 [Compound 322] | 30.39 | 32.2 nM | 1180 nM
O=C(NCc1cc2nc(-c3ccnc(C45CC(C4)C5)n3)ccc2cn1)c1cc(F)c2c(c1)S(=O)(=O)[C@@H](F)COC2 [Compound 290] | 17.27 | 9.6 nM | 187 nM
O=C(NCc1cc2nc(N3CCCc4c3ncc(F)c4OC3CC3)ccc2cn1)c1cc(F)c2c(c1)S(=O)(=O)[C@@H](F)CCO2 [Compound 15] | 11.06 | 1.5 nM | 16.6 nM
COc1cc(F)ccc1-c1ccc2cnc(CNC(=O)c3cc(F)c4c(c3)S(=O)(=O)[C@@H](F)CCO4)cc2n1 [Compound 158] | 17.08 | 5.1 nM | 86.7 nM
O=C(NCc1cc2nc(N3CCOc4ccc(N5CC[C@H](F)C5)nc43)ccc2cn1)c1cc(F)c2c(c1)S(=O)(=O)[C@@H](F)CCO2 [Compound 57] | 17.61 | 2.5 nM | 36.8 nM
O=C(NCc1cc2nc(N3CCCc4c3ccnc4OC3CC3)ccc2cn1)c1cc(F)c2c(c1)S(=O)(=O)[C@@H](F)CCO2 [Compound 76] | 16.02 | 2.8 nM | 45.1 nM
CC#Cc1ccc2c(n1)N(c1ccc3cnc(CNC(=O)c4cc(F)c5c(c4)S(=O)(=O)[C@@H](F)CCO5)cc3n1)CCO2 [Compound 37] | 15.93 | 2 nM | 31.9 nM
C[C@@H]1CN(c2cccc(-c3ccc4cnc(CNC(=O)c5cc(F)c6c(c5)S(=O)(=O)[C@@H](F)CO[C@@H]6C)cc4n3)n2)C[C@H](C)O1 [Compound 134] | 20.63 | 4.6 nM | 98.6 nM
O=C(NCc1cc2nc(N3CCOc4ccc([C@@H]5C[C@H]5F)nc43)ccc2cn1)c1cc(F)c2c(c1)S(=O)(=O)[C@@H](F)COC2 [Compound 207] | 18.77 | 6.2 nM | 113 nM
O=C(NCc1cc2nc(N3CCOc4cc(N5C[C@@H](F)[C@@H](F)C5)cnc43)ccc2cn1)c1cc(F)c2c(c1)S(=O)(=O)[C@@H](F)CCO2 [Compound 124] | 15.93 | 4.3 nM | 74.9 nM
O=C(NCc1cc2nc(N3CCOc4cc(C5CC5)cnc43)ccc2cn1)c1cc(F)c2c(c1)S(=O)(=O)[C@@H](F)CCO2 [Compound 40] | 16.70 | 2 nM | 38.5 nM
CCc1cnc2c(c1)OCCN2c1ccc2cnc(CNC(=O)c3cc(F)c4c(c3)S(=O)(=O)[C@@H](F)CCO4)cc2n1 [Compound 82] | 22.96 | 3.1 nM | 68 nM
O=C(NCc1cc2nc(-c3cccc(OC(F)F)n3)ccc2cn1)c1ccc2c(c1)S(=O)(=O)[C@@H](F)CCOC2 [Compound 42] | 13.35 | 2 nM | 27 nM
O=C(NCc1cc2cc(-c3cncc(C4CCC4)n3)ccc2cn1)c1cc(F)c2c(c1)S(=O)(=O)[C@@H](F)CCO2 [Compound 283] | 28.86 | 9.4 nM | 385 nM
COc1nc(CC(F)F)ccc1-c1ccc2cnc(CNC(=O)c3cc(F)c4c(c3)S(=O)(=O)[C@@H](F)CCO4)cc2n1 [Compound 292] | 23.12 | 9.8 nM | 226 nM
COc1cnc2c(c1)OCCN2c1ccc2cnc(CNC(=O)c3cc(F)c4c(c3)S(=O)(=O)[C@@H](F)CCO4)cc2n1 [Compound 71] | 17.64 | 2.7 nM | 48.3 nM
